Test results taken from patent US4001414A, “1,3,4-Trimethyl-2-(3,4,5-trimethoxybenzyl)-1,2,5,6-tetrahydropyridine and analgesic composition and method using it” (priority 1974, dated 1977).

Tests used:
[1] = system: acetic acid-induced writhing; assay: Analgesic activity, acetic acid-induced writhing technique; type: in vivo, albino I.C.R. Swiss mice; conditions: for No. of writhes (x ± M.S.E.): acetic acid 0.25 ml of 1% i.p. after 30 minutes, writhes counted in 20 minutes, p <0.001, control 112.2 ± 4.2, average value ± mean standard error; for analgesic activity (in words): as may be seen from Table B, mice
Procedure: The analgesic activity was investigated in albino I.C.R. Swiss mice, using the acetic acid-induced writhing technique. Groups each of 10 mice were assembled.
The analgesics were injected intraperitoneally, and after 30 minutes 0.25 ml of a 1% solution of acetic acid was injected intraperitoneally. A control group received only acetic acid. The numbers of writhes made by each mouse was counted in the 20 minutes following administration of the acetic acid.

[2] = Acute toxicity (LD50), i.p., method of Litchfield and Wilcoxon; conditions: mouse, in vivo, ip; I.C.R. Swiss mice, both sexes, 30 ± 2 g, intraperitoneal
Procedure: Acute toxicity studies were conducted in I.C.R. Swiss mice weighing 30 ± 2 g, of both sexes. The products were administered intraperitoneally (i.p.). The acute toxicity calculations were made by the method of Litchfield and Wilcoxon.

CCC(=O)O[C@](Cc1ccccc1)(c1ccccc1)[C@H](C)CN(C)C [Dextropropoxyphene, reference compound]
No. of writhes (x ± M.S.E.) ([1]; 25 mg/kg i.p.): 22.8 ± 4.74

COc1cc(CC2C(C)=C(C)CCN2C)cc(OC)c1OC (stereo not drawn) [Product I, 1,3,4-trimethyl-2-(3,4,5-trimethoxybenzyl)-1,2,5,6-tetrahydropyridine]
No. of writhes (x ± M.S.E.) ([1]; 20 mg/kg i.p.): 74.5 ± 4.84 | analgesic activity (in words) ([1]; 20 mg/kg i.p.): have analgesic activity

COc1cc(C[N+]2(C)CCC(C)=C(C)C2)cc(OC)c1OC.[Cl-] (stereo not drawn) [Product II, 1,3,4-trimethyl-1-(3,4,5-trimethoxybenzyl)-1,2,5,6-tetrahydropyridinium chloride]
No. of writhes (x ± M.S.E.) ([1]; 20 mg/kg i.p.): 53.6 ± 4.7 | analgesic activity (in words) ([1]; 20 mg/kg i.p.): have analgesic activity | LD50 [2]: 77 mg/kg
